Reference: publication PMC6890717, “Conversion of Cytochrome P450 2D6 of Human Into a FRET-Based Tool for Real-Time Monitoring of Ajmalicine in Living Cells” (Frontiers in Bioengineering and Biotechnology, 2019)

How the values were obtained:
E. coli BL21(DE3) cells = experiment: Real-time monitoring of ajmalicine in bacterial cells expressing FLIP-Ajn; assay type: cell-based, Escherichia coli; details: 10 mM ajmalicine added externally; increased from 0.2; 30 min recording
Description: The developed recombinant construct pRSET-B_ECFP_CYP2D6_Venus (FLIP-Ajn) was introduced in E. coli BL21(DE3) cells and grown at 37°C (150 rpm) in an incubator shaker until O.D.600 of the bacterial growth reached 0.6. The cells were then treated with 0.5 mM IPTG and kept for 24 h at 21°C with continuous shaking for the expression of the nanosensor protein. The real-time monitoring of ajmalicine in the bacterial cells was carried out by the addition of 10 mM ajmalicine to the bacterial culture placed in the multi-well plates. Ratio of emission intensities of Venus/ECFP were recorded for 30 min and data were collected at every 5 min intervals. The control experiment includes the bacterial cells without ajmalicine. The excitation filters/slits used were same as described in the previous analysis.

[1] = test system: Saccharomyces cerevisiae/URA3 strain BY4247; experiment: Real-time monitoring of ajmalicine in yeast cells expressing FLIP-Ajn (confocal); assay type: cell-based; details: 10 mM ajmalicine
Description: Gateway-cloned pYES-DEST_ECFP_CYP2D6_Venus was transformed in Saccharomyces cerevisiae/URA3 strain BY4247. The transformed yeast cells were cultured in synthetic defined (SD) medium containing dextrose (2%) as a source of carbon and galactose (1%) for induction. The expressed yeast cells were subjected to confocal microscopic analysis with Leica TCS-SPE scan head and 63x objective lens with oil immersion system. The expressed culture was provided with 10 mM ajmalicine. Ratio of emission intensities of Venus/ECFP were recorded for 10 min and data were collected at every 20 s intervals.

HEK-293T cells = experiment: Real-time monitoring of ajmalicine in transfected animal cells (confocal); assay type: cell-based, human; details: 10 mM ajmalicine; 0.4 ± 0.05 at 0 s
Description: The HEK-293T (human embryonic kidney) cells were cultured in Dulbecco's modified Eagle's medium containing 50 μg/ml ampicillin, 10% fetal calf serum, and CO2 in an incubator shaker at 37°C. Calcium phosphate-mediated transient transfection of HEK-293T cells with pCDNA_ECFP_CYP2D6_Venus was carried out in a 6-well culture plate and was allowed to express for 2 days. Washing buffer comprised of 50 mM NaCl, 1 mM MgCl2, 5 mM KCl, 5 mM D-glucose, and 25 mM HEPES (pH 7.2–7.4). After a gap of 2 days after transfection, the cultured cells were set for imaging analysis using a confocal microscope with 1.53 numerical aperture, cooled charge-coupled camera, and 63x oil immersion objective lens. The culture was supplemented with 10 mM ajmalicine and the images were taken. Ratio of emission intensities of Venus/ECFP were recorded for 10 min. The laser setting used for the analysis was same for both yeast and animal cells. Data were collected after an interval of 20 s and the exposure time set for acquiring images was 300 ms.

[2] = test system: Catharanthus roseus cells; experiment: FRET ratio in transformed plant suspension culture (confocal); assay type: cell-based; details: slow and consistent addition of ajmalicine to suspension culture; increased from 0.7
Description: Leaf explants were used in the study for initiating callus. The segments of Catharanthus roseus leaves were collected from the herbal garden of Jamia Hamdard, New Delhi. The collected explants were then washed continuously for 20 min under tap water. The explants were then treated with 0.5% cetrimide and 0.1% HgCl2 for 10 and 5 min, respectively. Further sequential washing with 70% alcohol and sterilized distilled water for 1 min were performed. The culturing of sterile explants was done on MS (Murashige and Skoog, [1962]) medium containing 0.5 μM 2,4-D, 3% sucrose, and 0.62% agar. The pH of the medium was maintained to 5.65, and the cultured tubes were kept in a culture room at 25 ± 2°C.
Agrobacterium tumefaceins strain EHA105 were transformed with pEarleyGate100_ECFP_CYP2D6_Venus, and the suspension culture was initiated after inoculating a single colony of transformed Agrobacterium strain in LB medium. The medium was supplemented with […], and […], and the culture was maintained at 28°C for 36 h. […]
Suspension culture of Catharanthus roseus transformed with pEarleyGate100_ECFP_CYP2D6_Venus was observed under a Leica confocal microscope with a 10x objective. The culture was subjected to fluorescence analysis, and the ratio of Venus/ECFP emission intensities was recorded after excitation at 430 nm. […]

[3] = test system: FLIP-Ajn (ECFP_CYP2D6_Venus, human Cytochrome P450 2D6); experiment: Specificity analysis of FLIP-Ajn with CYP2D6 inhibitors/substrates (FRET ratio); details: 10 mM compound added to FLIP-Ajn; change <0.2 regarded as insignificant
Description: Characterization of nanosensor was performed using microplate reader (Synergy H1, Biotek, USA). […] After spectral analysis, pH dependence, specificity, and affinity of the nanosensor were studied. […] Specificity testing of the developed nanosensor was carried out by the addition of 10 mM of various CYP2D6 inhibitors/substrates to FLIP-Ajn.

SMILES	FRET ratio after addition of ajmalicine (E. coli BL21(DE3) cells)	increased FRET ratio ([1]; Figure 8)	FRET ratio after addition of ajmalicine ([1]; increased from 0.65 within 10 min)	FRET ratio at 400 s (HEK-293T cells)	FRET ratio after addition of ajmalicine [2]	FRET ratio change relative to control [3]
COC(=O)C1=CO[C@@H](C)[C@H]2CN3CCc4c([nH]c5ccccc45)[C@@H]3C[C@H]12 [ajmalicine]	0.4	~ 1	1.61	0.85 ± 0.05	3.9	
COC(=O)C1=CO[C@@H](C)[C@H]2Cn3ccc4c5ccccc5nc-4c3C[C@H]12 [serpentine]						~ 0.14
